This note sets out measurements from patent US5491220A, “Surface loop structural analogues of fibroblast growth factors” (Yeda Research and Development Co., Ltd., priority 1994, dated 1996).

Assay [1] relates to FGF receptor on BHK cells. Description: Competition for 125I-FGF-2 binding to baby hamster kidney (BHK) cells. The settings on record: 50 pM 125I-FGF-2; compared with FGF-2. The method, then: FGF-2LI and FGF-2LA are tested for their capacity to compete for the binding of ^125 I-FGF-2 (Amersham Corp.) to baby hamster kidney (BHK) cells, which express high numbers of FGF receptor. The assay employed is described by Moscatelli (J. Cell. Physiol. 131: 123-130 (1987)). Briefly stated, BHK cells plated on 24-well plates are incubated with 50 pM ^125 I-FGF-2 with serial dilutions of unlabelled FGF-2, FGF-2LI or FGF-2LA loop mutants at room temperature for 1 hour or at 4° C. for 2 hours. The cells are then incubated at 4° C. for 30 minutes, washed twice with phosphate-buffered saline and treated with 20 mM HEPES (N-2-hydroxyethyl-piperazine-N'-2-ethanesulfonic acid), pH 7.5, containing 2M NaCl to remove ^125 I-FGF-2 bound to low affinity heparin sulfate binding sites. Receptor bound ^125 I-FGF-2 is recovered by treatment of the cells with 0.5% Triton X-100 in 0.1M sodium phosphate, pH 8, and counted in a γ-counter. Assays are conducted in duplicate.

Assay [2] concerns FGFR2(IIIb) (FGF-7 or KGF receptor). Description: Competition binding to soluble FGFR2(IIIb) (displacement of 125I-FGF-7). Details: species or system murine. The method, then: (§1) Binding of FGF proteins to different FGF receptors are determined in this example, by measuring the degree of competition for binding to different types of FGF-receptor proteins between a radioiodinated FGF protein and various unlabelled proteins, or by the direct binding of radioiodinated FGF's to various receptor proteins. Binding studies are confirmed by chemical cross-linking of the radioiodinated FGF to soluble receptors in the presence and absence of excess unlabelled FGF.
(§2) Soluble FGF receptor proteins are constructed by cloning of the extracellular region of murine FGF receptor 1 (FGFR-1; flg), FGF receptor 2 (FGFR-2; bek) or the KGF receptor (FGFR(IIIb); K-sam) into the alkaline phosphatase-tag expression vector, which encodes for a secreted form of placental alkaline phosphatase (AP). The FGF receptor alkaline phosphatase (FRAP) plasmids are cotransfected into NIH 3T3 cells by electroporation with a selectable neomycin resistance gene. Clonies are selected in G418 (600 μg/ml) and screened for secreted AP enzyme activity in the conditioned medium. Clones of each receptor which produced a high level of AP activity (2 to 4 A405 units/min/ml) are then used to produce conditioned medium for binding assays.
Components of the soluble receptor binding reaction mixture include FRAP-conditioned medium (0.24 OD units/min), 2 ng/ml^125 I-FGFs and 200 ng/ml heparin. The FGF:heparin:FRAP terniary complex is immunoprecipitated with 20 μl of a 1:1 slurry of anti-AP monoclonal antibodies coupled to protein A Sepharose®. All components are mixed at room temperature. The total volume is adjusted to 200 μl by addition of DMEM containing 0.1% bovine serum albumin. Binding is allowed to proceed for 1 to 2 hours at 24° C., after which time bound receptor complex or the ligand is recovered by centrifugation at 4° C. (10 s at 2,000×g). The pelleted material is washed twice with 500 μl of an ice cold buffer containing HEPES (20 mM), NaCl (150 mM), glycerol (10%) and Triton® X-100 (1%). ^125 I-FGF binding is quantitated by counting of the samples in a gamma counter (LKB). Alternatively, AP enzyme activity of the FRAP protein is determined by transferring the FRAP receptor bound to […] to a flat-bottom microtiter plate in a volume of 50 μl of PBS. The reaction is initiated by addition of substrate (50 μl of 2× solution of AP assay buffer containing 2M diethanoiamine, 1 mM MgCl2, 20 mM homoarginine and 12 mM p-nitrophenyl phosphate). The reaction is followed at room temperature at 405 nm in a kinetic microplate reader.
On the technique in general: In a radioligand displacement assay an active substance lowers the binding of a labelled ligand.

A further assay has as its system FGFR1. As to the kind of experiment: Chemical cross-linking of 125I-FGF to soluble FGFR1. The settings on record: with and without excess unlabelled FGF. It is filed as binding, murine. As for the experimental part:
as §1, §2
(§3) Chemical cross-linking experiments are carried out at room temperature in a volume of 20 μl in siliconized 0.5-ml microcentrifuge tubes. The reaction mixtures contain FGF receptor immobilized to anti-AP monoclonal antibodies coupled to protein A Sepharose®, 200 ng/ml heparin, 2 ng/ml^125 I-bFGF, 20 mM phosphate buffer (pH 7.4), and 140 mM NaCl. After a 90 minute incubation, […] of a solution of disuccinimidyl suberate (Pierce) dissolved in dimethyl sulfoxide is added to give a final concentration of 0.15 mM, and the mixture incubated for an additional 30 minutes. The reaction is quenched by addition of […] of 200 mM ethanolamine-HCl (pH 8.0) for 30 min. The reaction mixtures are diluted 1:1 with 2× SDS-polyacrylamide gel electrophoresis loading buffer and electrophoresed on an SDS-12% polyacrylamide gel. Cross-linked FGF to the FGF receptor are detected by autoradiography on Kodak XAR film.

Another assay relates to FGFR2(IIIb). As to the kind of experiment: Chemical cross-linking of 125I-FGF to soluble FGFR2(IIIb). The format is binding, murine. Particulars: with and without excess unlabelled FGF. As for the experimental part:
as §1, §2, §3

Assay [3] deals with bovine vascular endothelial cells derived from adult aortic arch. As to the kind of experiment: Mitogenic activity, endothelial cell proliferation assay. Particulars: 5 days in culture. The format is cell-based. As for the experimental part: The mitogenic activity of FGF-2, FGF-2LI and FGF-2LA are determined using bovine vascular endothelial cells derived from adult aortic arch as previously described (Gospardarowicz, D., et al., Proc. Nat. Acad. Sci. 81: 6963-6967 (1984)). Briefly, cells are seeded at an initial density of 0.8×10^4 cells per 24-well plate in 0.5 ml Dulbecco's modified Eagle's medium (DMEM) containing 10% calf serum (Hyclone, Logan, Utah) supplemented with penicillin (100 units/ml), streptomycin (100 ug/ml) and L-glutamine (2 mM). Two hours after plating, 20 ul aliquots of serial dilutions of FGF-2 and the mutants in DMEM are added. Inhibition of FGF-2-stimulated growth was determined at a fixed concentration of FGF-2, while that of the mutant proteins is varied. After 5 days in culture, duplicate plates are trypsinized and cell densities determined by cell counting in a Coulter counter. Determinations are conducted in duplicate.

For the substance “FGF-2LA: human FGF-2 with loop residues 118-122 replaced by Lys-Lys-His-Ala-Glu-Lys-His from bovine FGF-1 (SEQ ID NO 16) (KKHAEKH; printed: Lys-Lys-His-Ala-Glu-Lys-His)”, the “Capacity to compete with 125I-FGF-2 binding to FGF receptors on BHK cells” value in assay [1] is listed as “similar”. Besides, the “Binding to FGFR2(IIIb), times less than that of FGF-7 or FGF-1” value in assay [2] is “about 5 times”. In the assay with FGFR1, the “Cross-linking to FGFR1” value was “bind”. Besides, the “Cross-linking to FGFR2(IIIb)” value in the assay on FGFR2(IIIb) is recorded as “bind”. Further, in assay [3], the “Mitogenic potency compared with wild-type factor” value was “as potent as the wild-type factor”.
Consider “FGF-2LI: human FGF-2 with loop residues 118-122 replaced by Ala-Gln-Phe-Pro-Asn from human interleukin-1β (SEQ ID NO 15)”, for which, in assay [1], the “Capacity to compete with 125I-FGF-2 binding to FGF receptors on BHK cells” value is listed as “similar”. In assay [2] (200 ng/ml heparin), the “Binding to soluble FGFR2(IIIb) (competition with 125I-FGF-7)” value is “do not bind”. Moreover, the “Cross-linking to FGFR1” value in the assay with FGFR1 is on record as “bind”. Also, in the assay on FGFR2(IIIb), the “Cross-linking to FGFR2(IIIb)” value is “excluded from binding”. The “Mitogenic potency, times less potent than FGF-2” value in assay [3] lay within 5 to 10 times.
